Reference: patent US20100004283A1, “4-[(3-FLUOROPHENOXY)PHENYLMETHYL]PIPERIDINE METHANESULFONATE: USES, PROCESS OF SYNTHESIS AND PHARMACEUTICAL COMPOSITIONS” (priority 2006, published 2010)

Legend:
5-HTP-induced syndrome = conditions: mice, orally administered, acute; cited from earlier work
[1] = test system: immobility in the tail suspension test; conditions: mice, orally administered, acute; cited from earlier work
[2] = Studies of stability under forced conditions; type: physicochemical
Description: Additionally, the compound of formula I has shown excellent stability properties. The compound of formula I has remained stable for at least 6 months in studies of stability under forced conditions at 50 and 60° C., as well as at 40° C. and 75% humidity. This represents more than 2 years of stability under normal conditions.

Row | SMILES | minimal effective dose (MED), potentiation of the 5-HTP-induced syndrome (5-HTP-induced syndrome) | MED, reduction of the immobility in the tail suspension test [1] | time remained stable ([2]; 40° C. and 75% humidity) | time remained stable ([2]; forced conditions at 50° C.) | time remained stable ([2]; forced conditions at 60° C.) | stability under normal conditions ([2]; represented by the forced-condition results)
1 | Fc1cccc(O[C@H](c2ccccc2)C2CCNCC2)c1 [(S)-4-[(3-fluorophenoxy)phenylmethyl]piperidine] | 10 mg/kg | 10 mg/kg |  |  |  | 
2 | CS(=O)(=O)O.Fc1cccc(OC(c2ccccc2)C2CCNCC2)c1 (stereo not drawn) [compound of formula I, 4-[(3-fluorophenoxy)phenylmethyl]piperidine methanesulfonic acid salt] |  |  | at least 6 months | at least 6 months | at least 6 months | more than 2 years
